Measured values taken from PMC2844127 (Journal of medicinal chemistry, 2010).

Experiments:
[1] = tested on: 6-OHDA lesioned rats; experiment: Rotational experiment with 6-OHDA lesioned rats; format: in vivo, rat
[2] = target: dopamine hD3 receptor (Homo sapiens, UniProt P35462); experiment: Stimulation of [35S]GTPγS binding, hD3 receptors expressed in CHO cells; format: biochemical; details: read-out: %Emax, CHO-D3
[3] = target: dopamine rD3 receptor (Rattus norvegicus, UniProt P19020); details: ratio of Ki D2L to Ki D3
Sequence of dopamine rD3 receptor (P19020 whole entry): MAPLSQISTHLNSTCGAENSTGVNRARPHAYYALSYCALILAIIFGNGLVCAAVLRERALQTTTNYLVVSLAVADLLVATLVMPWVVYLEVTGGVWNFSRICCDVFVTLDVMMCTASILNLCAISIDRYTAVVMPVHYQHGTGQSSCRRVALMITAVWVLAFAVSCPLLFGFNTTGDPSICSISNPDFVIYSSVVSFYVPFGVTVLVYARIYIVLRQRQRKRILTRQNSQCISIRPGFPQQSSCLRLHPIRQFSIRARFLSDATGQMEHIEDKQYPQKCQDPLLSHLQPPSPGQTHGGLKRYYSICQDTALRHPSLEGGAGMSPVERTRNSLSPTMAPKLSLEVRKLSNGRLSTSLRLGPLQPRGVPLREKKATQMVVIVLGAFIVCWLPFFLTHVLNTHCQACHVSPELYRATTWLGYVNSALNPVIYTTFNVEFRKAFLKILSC

Sequence of dopamine hD3 receptor (P35462 whole entry): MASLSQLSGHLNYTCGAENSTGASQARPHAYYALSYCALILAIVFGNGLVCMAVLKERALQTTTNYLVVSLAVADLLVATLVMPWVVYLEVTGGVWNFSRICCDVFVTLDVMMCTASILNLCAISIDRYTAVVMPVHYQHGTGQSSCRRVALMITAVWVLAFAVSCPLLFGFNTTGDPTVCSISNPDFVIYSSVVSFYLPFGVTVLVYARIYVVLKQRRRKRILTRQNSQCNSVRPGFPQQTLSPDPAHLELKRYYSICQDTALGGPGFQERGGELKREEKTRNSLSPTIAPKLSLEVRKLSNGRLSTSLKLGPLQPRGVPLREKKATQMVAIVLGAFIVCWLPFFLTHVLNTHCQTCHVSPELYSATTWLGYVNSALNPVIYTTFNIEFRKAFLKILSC

For `CCCN(CCC)CCc1cccc2c1CC(=O)N2` [Ropinirole], the rotational activity ([1]; 5 µMol/kg) was “much less rotations with shorter duration of action” and the Emax [2] was 66.6 ± 8.1%.

`CCCN(CCN1CCN(Cc2ccc(O)c3ncccc23)CC1)C1CCc2ccc(O)cc2C1` (centres unmarked) [Compound 12a, 5-((4-(2-((7-hydroxy-1,2,3,4-tetrahydronaphthalen-2-yl)(propyl)amino)ethyl)piperazin-1-yl)methyl) quinolin-8-ol] was tested, and the D2L/D3 [3] was 15.4.

For `CN1CCc2cccc3c2[C@H]1Cc1ccc(O)c(O)c1-3` [apomorphine], the “average rotation (contralateral)” value ([1]; 0.05 mg/kg, 21 days post lesion, recorded for 30 min, four rats) was greater than 250.

`CCCN(CCN1CCN(Cc2ccc(O)c3ncccc23)CC1)C1CCc2c(O)cccc2C1` (centres unmarked) [Compound 12b, 5-((4-(2-((5-hydroxy-1,2,3,4-tetrahydronaphthalen-2-yl)(propyl)amino)ethyl)piperazin-1-yl)methyl)quinolin-8-ol] gave a D2L/D3 [3] of 11.2.
